Patent publication US6335347B1, “Ethyl 4-(8-chloro-5,6-dihydro-11 H-benzo[5,6]cyclohepta[1,2-b]pyridin-11-ylidene)-1-piperidene carboxylate polymorph” (Schering Corporation, priority 1997, dated 2002)

Tested on: monkey model
Assay: Antihistaminic activity in a monkey model

With `CCOC(=O)N1CCC(=C2c3ccc(Cl)cc3CCc3cccnc32)CC1` [polymorph form 2 loratadine, ethyl 4-(8-chloro-5,6,-dihydro-11H-benzo[5,6]cyclohepta[1,2-b]pyridin-11-ylidene)-1-piperidene carboxylate] the Antihistaminic activity was “demonstrated”.
